Test results published in patent publication US20220267380A1, “Glycopeptides Increasing Lipid Synthesis” (TFCHEM, priority 2019, published 2022).

System: normal human dermal fibroblasts (NHDF)
Experiment: Gene expression in NHDF, full transcriptome analysis with Affymetrix U219 microarray
Assay type: cell-based
Details: NHDF
Description: In the present study, the transcriptional effects (modulation of gene expression) of compounds 1, 2, 3 and 4 were evaluated on normal human dermal fibroblasts (NHDF) under basal conditions.
More specifically, the comparative analysis of the different transcriptomic profiles was performed using an Affymetrix GeneAtlas platform and the human “full transcriptome” U219 chip, which includes 36,000 transcripts and variants.
Fibroblasts were seeded in 24-well plates and cultured in culture medium for 24 hours. The medium was then replaced by assay medium and cells were incubated for further 24 hours. The medium was replaced by assay medium containing or not (control) the test compounds at different concentrations and the cells were preincubated for 24 hours. All experimental conditions were performed in triplicate. At the end of incubation, the culture supernatants were removed and the cells were washed in a phosphate buffered saline (PBS) solution and immediately frozen at −80° C.
Before RNA extraction, the replicates were pooled. Total RNA was extracted from each sample using TriPure Isolation Reagent® according to the supplier's instructions. The amount and quality of total RNA were evaluated for all samples using capillary electrophoresis (Bioanalyzer 2100, Agilent technologies). From each RNA, a labeled and amplified anti-sens RNA (aRNA) was obtained using GeneChip 3′IVT PLUS Kit (Affymetrix). For each labeled and amplified aRNA sample the profiles were evaluated before and after fragmentation using capillary electrophoresis (Bioanalyzer 2100, Agilent technologies). Hybridization of fragmented aRNA onto Affymetrix® U219 chip (36,000 transcripts and variants) was performed in the GeneAtlas™ fluidics Affymetrix® hybridization station for 20 hours at 45° C. U219 chip was analyzed using the GeneAtlas™ Imaging station (Affymetrix®—resolution 2 μm) to generate fluorescence intensity data.
Expression Console and Quality controls: data were normalized with the Expression Console (Affymetrix®) software using RMA algorithm. Then a quality control of the labeling and the hybridization was performed. Hybridization and labeling steps successfully passed the quality controls for these experiments.
Data reduction, Excel file description: once normalized with Expression Console, data were transferred into a Microsoft Excel® file in order to go further into data reduction.
Calculation and tools were added in order to rank and sort data, and finally to support data interpretation. Detection thresholds in terms of fold change were defined and applied on normalized data.
Results are considered and presented or commented per gene (and not probe). A probe set is a collection of probes designed to interrogate a given sequence of a gene. For data interpretation, the most important relative expression value obtained with one probe is considered to be representative of the corresponding gene. The file contains the following data: • Relative expression (RE) for each sample, • Fold change calculation, • Gene information.

Question: How did the “effect of treatment of NHDF on lipid synthesis (transcriptional)” value turn out when `N[C@@H](CCCCNCC(F)(F)[C@]1(O)O[C@H](CO)[C@H](O)[C@H](O)[C@H]1O)C(=O)O` [Compound 3] was run?
Answer: The value was “up regulation of lipids synthesis, including fatty acids, cholesterol or ceramides”.

Question: What about the “Fold change, ACOT1///ACOT2” value (10 mg/ml, 24 h, vs control) of the same compound?
Answer: Its value is 2.02.

Question: What about the “Fold change, APOD” value (10 mg/ml, 24 h, vs control) of the same compound?
Answer: Its value is 0.44.

Question: What about the “Fold change, DHCR7” value (10 mg/ml, 24 h, vs control) of the same compound?
Answer: Its value is 2.95.

Question: And the “Fold change, FADS2” value (10 mg/ml, 24 h, vs control)?
Answer: Its value is 2.20.

Question: What about the “Fold change, GBAP1” value (10 mg/ml, 24 h, vs control) of the same compound?
Answer: Its value is 2.45.

Question: And the “Fold change, HACD1” value (10 mg/ml, 24 h, vs control)?
Answer: Its value is 2.63.

Question: And the “Fold change, HMGCS1” value (10 mg/ml, 24 h, vs control)?
Answer: The value was 2.18.

Question: What about the “Fold change, LRP8” value (10 mg/ml, 24 h, vs control) of the same compound?
Answer: Its value is 2.98.

Question: And the “Fold change, MVD” value (10 mg/ml, 24 h, vs control)?
Answer: The value was 2.80.

Question: And the “Fold change, NCOR1” value (10 mg/ml, 24 h, vs control)?
Answer: Its value is 0.44.

Question: And the “Fold change, NEU1” value (10 mg/ml, 24 h, vs control)?
Answer: Its value is 3.17.

Question: What about the “Fold change, NPC1” value (10 mg/ml, 24 h, vs control) of the same compound?
Answer: The value was 2.45.

Question: And the “Fold change, PHLDB2” value (10 mg/ml, 24 h, vs control)?
Answer: The value was 2.14.

Question: And the “Fold change, PHYH” value (10 mg/ml, 24 h, vs control)?
Answer: Its value is 2.37.

Question: And the “Fold change, PLA2G15” value (10 mg/ml, 24 h, vs control)?
Answer: The value was 2.01.

Question: And the “Fold change, PLA2G16” value (10 mg/ml, 24 h, vs control)?
Answer: Its value is 2.30.

Question: What about the “Fold change, PRKAB2” value (10 mg/ml, 24 h, vs control) of the same compound?
Answer: Its value is 0.35.

Question: And the “Fold change, PTGDS” value (10 mg/ml, 24 h, vs control)?
Answer: The value was 2.50.

Question: And the “Fold change, SOAT1” value (10 mg/ml, 24 h, vs control)?
Answer: Its value is 2.08.

Question: What about the “Fold change, SPHK1” value (10 mg/ml, 24 h, vs control) of the same compound?
Answer: Its value is 2.18.

Question: And the “Fold change, SREBF1” value (10 mg/ml, 24 h, vs control)?
Answer: Its value is 2.16.

Question: What about the “Fold change, TXNRD1” value (10 mg/ml, 24 h, vs control) of the same compound?
Answer: The value was 2.22.

Question: And the “Fold change, VAC14” value (10 mg/ml, 24 h, vs control)?
Answer: The value was 2.10.

Question: And the “Fold change, SCD” value (10 mg/ml, 24 h, vs control, Affymetrix probe set 11715561_s_at)?
Answer: The value was 4.60.

Question: What about the “Fold change, SCD” value (10 mg/ml, 24 h, vs control, Affymetrix probe set 11715562_x_at) of the same compound?
Answer: The value was 4.82.

Question: And the “Fold change, SCD” value (10 mg/ml, 24 h, vs control, Affymetrix probe set 11715563_s_at)?
Answer: Its value is 4.79.

Question: What about the “Fold change, G6PD” value (10 mg/ml, 24 h, vs control, Affymetrix probe set 11716292_a_at) of the same compound?
Answer: The value was 2.00.

Question: What about the “Fold change, G6PD” value (10 mg/ml, 24 h, vs control, Affymetrix probe set 11716293_x_at) of the same compound?
Answer: Its value is 2.04.

Question: What about the “Fold change, INSIG1” value (10 mg/ml, 24 h, vs control, Affymetrix probe set 11716338_a_at) of the same compound?
Answer: Its value is 2.36.

Question: What about the “Fold change, INSIG1” value (10 mg/ml, 24 h, vs control, Affymetrix probe set 11716339_a_at) of the same compound?
Answer: Its value is 2.78.

Question: What about the “Fold change, PPT1” value (10 mg/ml, 24 h, vs control, Affymetrix probe set 11716533_a_at) of the same compound?
Answer: The value was 2.40.

Question: And the “Fold change, LSS” value (10 mg/ml, 24 h, vs control, Affymetrix probe set 11717620_a_at)?
Answer: Its value is 2.41.

Question: And the “Fold change, EBP” value (10 mg/ml, 24 h, vs control, Affymetrix probe set 11717859_a_at)?
Answer: Its value is 2.52.

Question: And the “Fold change, GBA///GBAP1” value (10 mg/ml, 24 h, vs control, Affymetrix probe set 11719908_a_at)?
Answer: The value was 2.30.

Question: And the “Fold change, GM2A” value (10 mg/ml, 24 h, vs control, Affymetrix probe set 11719921_s_at)?
Answer: Its value is 2.39.

Question: What about the “Fold change, GM2A” value (10 mg/ml, 24 h, vs control, Affymetrix probe set 11719923_at) of the same compound?
Answer: The value was 2.09.

Question: What about the “Fold change, HSD17B14” value (10 mg/ml, 24 h, vs control, Affymetrix probe set 11720588_a_at) of the same compound?
Answer: The value was 2.17.

Question: And the “Fold change, SERINC2” value (10 mg/ml, 24 h, vs control, Affymetrix probe set 11721046_a_at)?
Answer: Its value is 2.54.

Question: What about the “Fold change, TPP1” value (10 mg/ml, 24 h, vs control, Affymetrix probe set 11725032_a_at) of the same compound?
Answer: The value was 2.23.

Question: What about the “Fold change, ME1” value (10 mg/ml, 24 h, vs control, Affymetrix probe set 11726265_at) of the same compound?
Answer: The value was 2.41.

Question: And the “Fold change, LSS” value (10 mg/ml, 24 h, vs control, Affymetrix probe set 11731324_a_at)?
Answer: The value was 3.12.

Question: What about the “Fold change, GBA///GBAP1” value (10 mg/ml, 24 h, vs control, Affymetrix probe set 11736100_a_at) of the same compound?
Answer: Its value is 2.69.

Question: And the “Fold change, CHKA” value (10 mg/ml, 24 h, vs control, Affymetrix probe set 11736285_a_at)?
Answer: Its value is 2.53.

Question: And the “Fold change, CHKA” value (10 mg/ml, 24 h, vs control, Affymetrix probe set 11736286_a_at)?
Answer: Its value is 2.73.

Question: What about the “Fold change, ASAH1” value (10 mg/ml, 24 h, vs control, Affymetrix probe set 11740582_a_at) of the same compound?
Answer: Its value is 2.18.

Question: And the “Fold change, PPT1” value (10 mg/ml, 24 h, vs control, Affymetrix probe set 11742107_a_at)?
Answer: The value was 2.25.

Question: And the “Fold change, ASAH1” value (10 mg/ml, 24 h, vs control, Affymetrix probe set 11743547_a_at)?
Answer: Its value is 2.16.

Question: What about the “Fold change, PCYT2” value (10 mg/ml, 24 h, vs control, Affymetrix probe set 11744044_s_at) of the same compound?
Answer: The value was 2.15.

Question: And the “Fold change, FADS1” value (10 mg/ml, 24 h, vs control, Affymetrix probe set 11745459_a_at)?
Answer: Its value is 3.04.

Question: And the “Fold change, LPCAT3” value (10 mg/ml, 24 h, vs control, Affymetrix probe set 11746281_a_at)?
Answer: The value was 2.48.

Question: And the “Fold change, LDLR” value (10 mg/ml, 24 h, vs control, Affymetrix probe set 11746974_a_at)?
Answer: The value was 2.37.

Question: And the “Fold change, GM2A” value (10 mg/ml, 24 h, vs control, Affymetrix probe set 11747178_x_at)?
Answer: Its value is 2.24.

Question: And the “Fold change, PCYT2” value (10 mg/ml, 24 h, vs control, Affymetrix probe set 11747322_s_at)?
Answer: The value was 2.72.

Question: What about the “Fold change, LDLR” value (10 mg/ml, 24 h, vs control, Affymetrix probe set 11748045_x_at) of the same compound?
Answer: Its value is 2.10.

Question: And the “Fold change, SERINC2” value (10 mg/ml, 24 h, vs control, Affymetrix probe set 11748053_x_at)?
Answer: Its value is 2.92.

Question: And the “Fold change, TM7SF2” value (10 mg/ml, 24 h, vs control, Affymetrix probe set 11748279_s_at)?
Answer: The value was 2.25.

Question: And the “Fold change, GBA///GBAP1” value (10 mg/ml, 24 h, vs control, Affymetrix probe set 11748292_a_at)?
Answer: Its value is 2.58.

Question: And the “Fold change, TPP1” value (10 mg/ml, 24 h, vs control, Affymetrix probe set 11748341_a_at)?
Answer: The value was 2.60.

Question: And the “Fold change, TPP1” value (10 mg/ml, 24 h, vs control, Affymetrix probe set 11748342_x_at)?
Answer: The value was 2.34.

Question: What about the “Fold change, EBP” value (10 mg/ml, 24 h, vs control, Affymetrix probe set 11749332_x_at) of the same compound?
Answer: Its value is 2.48.

Question: And the “Fold change, ABHD4” value (10 mg/ml, 24 h, vs control, Affymetrix probe set 11749343_a_at)?
Answer: Its value is 2.28.

Question: What about the “Fold change, ABHD4” value (10 mg/ml, 24 h, vs control, Affymetrix probe set 11749376_a_at) of the same compound?
Answer: The value was 2.13.

Question: What about the “Fold change, ME1” value (10 mg/ml, 24 h, vs control, Affymetrix probe set 11750913_a_at) of the same compound?
Answer: Its value is 2.67.

Question: What about the “Fold change, GBA” value (10 mg/ml, 24 h, vs control, Affymetrix probe set 11750975_x_at) of the same compound?
Answer: The value was 2.34.

Question: What about the “Fold change, GBA///GBAP1” value (10 mg/ml, 24 h, vs control, Affymetrix probe set 11751085_a_at) of the same compound?
Answer: The value was 2.84.

Question: What about the “Fold change, GBA” value (10 mg/ml, 24 h, vs control, Affymetrix probe set 11751086_x_at) of the same compound?
Answer: Its value is 2.57.

Question: And the “Fold change, GBA///GBAP1” value (10 mg/ml, 24 h, vs control, Affymetrix probe set 11751098_a_at)?
Answer: The value was 2.57.

Question: And the “Fold change, DHCR24” value (10 mg/ml, 24 h, vs control, Affymetrix probe set 11751337_a_at)?
Answer: The value was 2.29.

Question: And the “Fold change, DHCR24” value (10 mg/ml, 24 h, vs control, Affymetrix probe set 11751338_x_at)?
Answer: The value was 2.44.

Question: And the “Fold change, G6PD” value (10 mg/ml, 24 h, vs control, Affymetrix probe set 11752486_a_at)?
Answer: Its value is 3.18.
